Where only a bound is given, the exact number is not on record here.

The text below walks through data of US20260265265A1, “NOVEL BENZIMIDAZOLONE DERIVATIVE COMPOUND AS AUTOTAXIN INHIBITOR” (LG CHEM, LTD., priority 2023, published 2026).

In this test the target is T1, Recombinant Human ENPP-2/Autotaxin (Homo sapiens, UniProt Q13822).
T1 construct: purchased R&D systems 5255-EN
The test is described as follows: LysoPLD activity measurement (autotaxin enzyme inhibition, choline release, TOOS reagent). The note with it: LysoPLD inhibitory activity; substrate 14:0 LysoPC; absorbance at 555 nm. Format: biochemical. An outline of the steps: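 Enzyme and compound were preincubated for 30 min before adding 14:0 LysoPC substrate, diluted to 300 μM, for 90 minutes at 37° C. The choline product was quantified colorimetrically with TOOS reagent. Wells without compound held 1% DMSO.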
`O=C(O)c1cccc(C2(n3c(=O)n(-c4ccc(N5CC(O)C5)cc4)c4cc(Cl)ccc43)CC2)c1` [Example 159, 3-(1-(5-chloro-3-(4-(3-hydroxyazetidin-1-yl)phenyl)-2-oxo-2,3-dihydro-1H-benzo[d]imidazol-1-yl)cyclopropyl)benzoic acid]: the concentration for half-maximal inhibition (IC50) is less than 10 nM.
Turning to `O=C(O)c1cccc(C2(n3c(=O)n(-c4ccc(N5CCC(F)(F)CC5)cc4)c4cc(Cl)ccc43)CC2)c1` [Example 160, 3-(1-(5-chloro-3-(4-(4,4-difluoropiperidin-1-yl)phenyl)-2-oxo-2,3-dihydro-1H-benzo[d]imidazol-1-yl)cyclopropyl)benzoic acid], the IC50 is less than 10 nM.
The value for `CN(C)c1ccc(-n2c(=O)n(Cc3cccc(C(=O)O)c3)c3ncc(Cl)cc32)cc1` [Example 161, 3-((6-chloro-1-(4-(dimethylamino)phenyl)-2-oxo-1,2-dihydro-3H-imidazo[4,5-b]pyridin-3-yl)methyl)benzoic acid] was 100 to 1000 nM; that for `O=C(O)c1cccc(Cn2c(=O)n(-c3ccc(N4CCOCC4)cc3)c3cc(Cl)cnc32)c1` [Example 162, 3-((6-chloro-1-(4-morpholinophenyl)-2-oxo-1,2-dihydro-3H-imidazo[4,5-b]pyridin-3-yl)methyl)benzoic acid] was 100 to 1000 nM; that for `O=C(O)c1cccc(Cn2c(=O)n(-c3ccc(C4CC4)cn3)c3cc(Cl)ccc32)c1` [Example 163, 3-((5-chloro-3-(5-cyclopropylpyridin-2-yl)-2-oxo-2,3-dihydro-1H-benzo[d]imidazol-1-yl)methyl)benzoic acid] was 100 to 1000 nM.
For `CN(C)c1ccc(-n2c(=O)n(Cc3cccc(C(=O)O)c3)c3ccc(Cl)cc32)nc1` [Example 164, 3-((5-chloro-3-(5-(dimethylamino)pyridin-2-yl)-2-oxo-2,3-dihydro-1H-benzo[d]imidazol-1-yl)methyl)benzoic acid] the value was 100 to 1000 nM.
For `O=C(O)c1cccc(C2(n3c(=O)n(-c4ccc(N5CCC(F)(F)C5)nc4)c4cc(Cl)ccc43)CC2)c1` [Example 165, 3-(1-(5-chloro-3-(6-(3,3-difluoropyrrolidin-1-yl)pyridin-3-yl)-2-oxo-2,3-dihydro-1H-benzo[d]imidazol-1-yl)cyclopropyl)benzoic acid] the value was less than 10 nM.
As to `O=C(O)c1cccc(Cn2c(=O)n(-c3ccc(N4CCC(F)(F)C4)nc3)c3cc(Cl)ccc32)c1F` [Example 166, 3-((5-chloro-3-(6-(3,3-difluoropyrrolidine-1-yl)pyridin-3-yl)-2-oxo-2,3-dihydro-1H-benzo[d]imidazol-1-yl)methyl)-2-fluorobenzoic acid], the IC50 was 100 to 1000 nM.
For `Cc1ccc2c(n1)n(-c1ccc(N(C)C)cc1)c(=O)n2Cc1cccc(C(=O)O)c1` [Example 168, 3-((3-(4-(dimethylamino)phenyl)-5-methyl-2-oxo-2,3-dihydro-1H-imidazo[4,5-b]pyridin-1-yl)methyl)benzoic acid] the value was 100 to 1000 nM; for `O=C(O)c1cccc(Cn2c(=O)n(-c3ccc(C(=O)N4CCCC4)cc3)c3cc(Cl)cnc32)c1` [Example 169, 3-((6-chloro-2-oxo-1-(4-(pyrrolidine-1-carbonyl)phenyl)-1,2-dihydro-3H-imidazo[4,5-b]pyridin-3-yl)methyl)benzoic acid], 10 to 100 nM; for `O=C(O)c1cccc(C2(n3c(=O)n(-c4ccc(CC(=O)N5CCCC5)cc4)c4cc(Cl)ccc43)CC2)c1` [Example 170, 3-(1-(5-chloro-2-oxo-3-(4-(2-oxo-2-(pyrrolidin-1-yl)ethyl)phenyl)-2,3-dihydro-1H-benzo[d]imidazol-1-yl)cyclopropyl)benzoic acid], less than 10 nM.
For `O=C(O)c1cccc(C2(n3c(=O)n(-c4ccc(CC(=O)N5CCCCC5)cc4)c4cc(Cl)ccc43)CC2)c1` [Example 171, 3-(1-(5-chloro-2-oxo-3-(4-(2-oxo-2-(piperidin-1-yl)ethyl)phenyl)-2,3-dihydro-1H-benzo[d]imidazol-1-yl)cyclopropyl)benzoic acid] the value was less than 10 nM; for `O=C(O)c1cccc(C2(n3c(=O)n(-c4ccc(CC(=O)N5CCOCC5)cc4)c4cc(Cl)ccc43)CC2)c1` [Example 172, 3-(1-(5-chloro-3-(4-(2-morpholino-2-oxoethyl)phenyl)-2-oxo-2,3-dihydro-1H-benzo[d]imidazol-1-yl)cyclopropyl)benzoic acid], 10 to 100 nM.
The value for `O=C(O)c1cccc(C2(n3c(=O)n(-c4ccc(CC(=O)N5CCC(F)(F)CC5)cc4)c4cc(Cl)ccc43)CC2)c1` [Example 173, 3-(1-(5-chloro-3-(4-(2-(4,4-difluoropiperidin-1-yl)-2-oxoethyl)phenyl)-2-oxo-2,3-dihydro-1H-benzo[d]imidazol-1-yl)cyclopropyl)benzoic acid] was 10 to 100 nM; that for `O=C(O)c1cccc(C2(n3c(=O)n(-c4ccc(CC(=O)N5CC(O)C5)cc4)c4cc(Cl)ccc43)CC2)c1` [Example 174, 3-(1-(5-chloro-3-(4-(2-(3-hydroxyazetidin-1-yl)-2-oxoethyl)phenyl)-2-oxo-2,3-dihydro-1H-benzo[d]imidazol-1-yl)cyclopropyl)benzoic acid] was less than 10 nM; that for `C[C@@H]1CN(C(=O)Cc2ccc(-n3c(=O)n(C4(c5cccc(C(=O)O)c5)CC4)c4ccc(Cl)cc43)cc2)CCO1` [Example 175, (R)-3-(1-(5-chloro-3-(4-(2-(2-methylmorpholino)-2-oxoethyl)phenyl)-2-oxo-2,3-dihydro-1H-benzo[d]imidazol-1-yl)cyclopropyl)benzoic acid] was less than 10 nM.
Turning to `C[C@H]1CN(C(=O)Cc2ccc(-n3c(=O)n(C4(c5cccc(C(=O)O)c5)CC4)c4ccc(Cl)cc43)cc2)CCO1` [Example 176, (S)-3-(1-(5-chloro-3-(4-(2-(2-methylmorpholino)-2-oxoethyl)phenyl)-2-oxo-2,3-dihydro-1H-benzo[d]imidazol-1-yl)cyclopropyl)benzoic acid], the half-maximal inhibitory concentration (IC50) fell in the range of 10 to 100 nM.
For `C[C@H]1COCCN1C(=O)Cc1ccc(-n2c(=O)n(C3(c4cccc(C(=O)O)c4)CC3)c3ccc(Cl)cc32)cc1` [Example 177, (S)-3-(1-(5-chloro-3-(4-(2-(3-methylmorpholino)-2-oxoethyl)phenyl)-2-oxo-2,3-dihydro-1H-benzo[d]imidazol-1-yl)cyclopropyl)benzoic acid] the value was 10 to 100 nM; for `C[C@@H]1COCCN1C(=O)Cc1ccc(-n2c(=O)n(C3(c4cccc(C(=O)O)c4)CC3)c3ccc(Cl)cc32)cc1` [Example 178, (R)-3-(1-(5-chloro-3-(4-(2-(3-methylmorpholino)-2-oxoethyl)phenyl)-2-oxo-2,3-dihydro-1H-benzo[d]imidazol-1-yl)cyclopropyl)benzoic acid], less than 10 nM; for `O=C(O)c1cccc(C2(n3c(=O)n(-c4ccc(C56CC7CC(CC(C7)C5)C6)cc4)c4cc(Cl)ccc43)CC2)c1` [Example 179, 3-(1-(3-(4-((3r,5r,7r)-adamantan-1-yl)phenyl)-5-chloro-2-oxo-2,3-dihydro-1H-benzo[d]imidazol-1-yl)cyclopropyl)benzoic acid], 100 to 1000 nM.
For `CS(=O)(=O)c1ccc(-n2c(=O)n(C3(c4cccc(C(=O)O)c4)CC3)c3ccc(Cl)cc32)cc1` [Example 180, 3-(1-(5-chloro-3-(4-(methylsulfonyl)phenyl)-2-oxo-2,3-dihydro-1H-benzo[d]imidazol-1-yl)cyclopropyl)benzoic acid] the value was less than 10 nM; for `O=C(O)c1cccc(C2(n3c(=O)n(-c4ccc(N5CC6CC5CO6)cc4)c4cc(Cl)ccc43)CC2)c1` (stereo not shown) [Example 181, 3-(1-(3-(4-(2-oxa-5-azabicyclo[2.2.1]heptan-5-yl)phenyl)-5-chloro-2-oxo-2,3-dihydro-1H-benzo[d]imidazol-1-yl)cyclopropyl)benzoic acid], less than 10 nM.
As for `O=C(O)c1cccc(C2(n3c(=O)n(-c4ccc(N5CC6CCC(C5)O6)cc4)c4cc(Cl)ccc43)CC2)c1` [Example 182, 3-(1-(3-(4-(8-oxa-3-azabicyclo[3.2.1]octan-3-yl)phenyl)-5-chloro-2-oxo-2,3-dihydro-1H-benzo[d]imidazol-1-yl)cyclopropyl)benzoic acid], the IC50 was less than 10 nM.
With `O=C(O)c1cccc(C2(n3c(=O)n(-c4ccc(N5CCCOCC5)cc4)c4cc(Cl)ccc43)CC2)c1` [Example 183, 3-(1-(3-(4-(1,4-oxazepan-4-yl)phenyl)-5-chloro-2-oxo-2,3-dihydro-1H-benzo[d]imidazol-1-yl)cyclopropyl)benzoic acid], the IC50 was less than 10 nM.
In the case of `O=C(O)c1cccc(C2(n3c(=O)n(-c4ccc(N5CC6(CCC6)C5)cc4)c4cc(Cl)ccc43)CC2)c1` [Example 184, 3-(1-(3-(4-(2-azaspiro[3.3]heptan-2-yl)phenyl)-5-chloro-2-oxo-2,3-dihydro-1H-benzo[d]imidazol-1-yl)cyclopropyl)benzoic acid], the IC50 was 10 to 100 nM.
For `O=C(O)c1cccc(C2(n3c(=O)n(-c4ccc(N5CC(F)(F)C5)cc4)c4cc(Cl)ccc43)CC2)c1` [Example 185, 3-(1-(5-chloro-3-(4-(3,3-difluoroazetidin-1-yl)phenyl)-2-oxo-2,3-dihydro-1H-benzo[d]imidazol-1-yl)cyclopropyl)benzoic acid] the value was less than 10 nM; for `CC(=O)N1CCC2(CC1)CN(c1ccc(-n3c(=O)n(C4(c5cccc(C(=O)O)c5)CC4)c4ccc(Cl)cc43)cc1)C2` [Example 186, 3-(1-(3-(4-(7-acetyl-2,7-diazaspiro[3.5]nonan-2-yl)phenyl)-5-chloro-2-oxo-2,3-dihydro-1H-benzo[d]imidazol-1-yl)cyclopropyl)benzoic acid], less than 10 nM; for `O=C(O)c1cc(F)cc(C2(n3c(=O)n(-c4ccc(N5CCOCC5)cc4)c4cc(Cl)ccc43)CC2)c1` [Example 187, 3-(1-(5-chloro-3-(4-morpholinophenyl)-2-oxo-2,3-dihydro-1H-benzo[d]imidazol-1-yl)cyclopropyl)-5-fluorobenzoic acid], less than 10 nM.

As usually defined, the IC50 is the midpoint of a concentration-inhibition curve.
